# Experiments:
# Escherichia coli = assay: Agar disc diffusion, strain A; assay type: cell-based; design: (inhibition %): concentration or dose not given beside the values
# Description: (§1) In-vitro antimicrobial properties were evaluated for all samples by the agar disc diffusion method towards different fungal and bacterial strains. Additionally, the reported inhibition zone values were comparatively analyzed with the standard antifungal drugs ketoconazole and amphotericin B as well as the standard antibiotic medications streptomycin and amikacin.
# (§2) The current research has a curious focus on the in vitro antimicrobial properties of biological systems because these studies are crucial for developing effective antibacterial and antifungal medications. […] It can also be spelled out based on the chelation theory proposed by Overtone and Tweedy. Chelation theory points out that the partial exchanging of the positive charge of the metal center with donor moieties, and overlap of the ligand orbitals will reduce the greater degree of the metal ion's polarity, which ultimately rises the delocalization of π and d electrons over the full chelated ring system. By raising the size of the metal ion due to the retarding of polarization, chelation may also enhance the complexes' lipophilic characteristics, which further stimulate the lipid membrane permeability and break down the bacteria' enzymes responsible for cell wall formation, therefore slowing down the regular cell processes. By preventing the production of cell walls/proteins/DNA, including by obstructing folate metabolism and the cytoplasmic membrane, antimicrobial drugs frequently either fully eliminate microbes or only prevent their cell growth. Additionally, the samples' mode of action may be employed in disrupting the cell's respiration process by forming an H-bond during the morpholine-fused iminic group coordinated with the active metal center of its components, inhibiting proliferation of the cell. […] The difference in the antimicrobial efficacy of some of the compounds towards various microorganisms influences on the impermeability of the cells of the germs or the diversity of ribosomes of the microbes. The % of the inhibition of all substances is estimated from (45) (Table 9).
# (§3) (A, B, C, D, and E are represented as gram negative bacteria species Escherichia coli, Salmonella enteric serovar typhi, Salmonella enteric serovar typhi, Pseudomonas aeruginosa, and Shigella flexneri, respectively. F & G are denoted as gram positive bacteria species Staphylococcus aureus and Bacillus cereus. H, I, and J are represented as fungal strains Aspergillus niger, Candida albicans, and Mucor indicus. Standard drugs for bacterial strains: Amikacin & Streptomycin Standard drugs for fungal strains: Ketoconazole and Amphotericin B. [Control (DMSO) = 6 mm].(44) Inhibition %=T–C/T×100, where T and C are represented as the diameter of microbial growth of the sample plates and the control plate (6 mm), respectively. Error limits ±2.5–5.0% (P ≤ 0.05).
# [1] = test system: Salmonella enteric serovar typhi; assay: Agar disc diffusion, strain B; assay type: cell-based
# Description: as §1, §2, §3
# [2] = test system: Salmonella enteric serovar typhi; assay: Agar disc diffusion, strain C; assay type: cell-based
# Description: as §1, §2, §3
# Pseudomonas aeruginosa = assay: Agar disc diffusion, strain D; assay type: cell-based; design: (inhibition %): concentration or dose not given beside the values
# Description: as §1, §2, §3
# Shigella flexneri = assay: Agar disc diffusion, strain E; assay type: cell-based; design: (inhibition %): concentration or dose not given beside the values
# Description: as §1, §2, §3
# Staphylococcus aureus = assay: Agar disc diffusion, strain F; assay type: cell-based; design: (inhibition %): concentration or dose not given beside the values
# Description: as §1, §2, §3
# Bacillus cereus = assay: Agar disc diffusion, strain G; assay type: cell-based; design: (inhibition %): concentration or dose not given beside the values
# Description: as §1, §2, §3
# Aspergillus niger = assay: Agar disc diffusion, strain H; assay type: cell-based; design: (inhibition %): concentration or dose not given beside the values; details: for diameter of the clear zone inhibition: control = 6 mm
# Description: as §1, §2, §3
# Candida albicans = assay: Agar disc diffusion, strain I; assay type: cell-based; design: (inhibition %): concentration or dose not given beside the values; details: for diameter of the clear zone inhibition: control = 6 mm
# Description: as §1, §2, §3
# Mucor indicus = assay: Agar disc diffusion, strain J; assay type: cell-based; design: (inhibition %): concentration or dose not given beside the values; details: for diameter of the clear zone inhibition: control = 6 mm
# Description: as §1, §2, §3
# [3] = test system: calf thymus deoxyribonucleic acid; assay: DNA binding by viscometric (hydrodynamic) technique
# Description: The titrations were performed for all compounds including EB (control) at 20, 40, 60, 80, and 100 μM concentrations. In the Ostwald viscometer, these substances were also separately treated with the calf thymus deoxyribonucleic acid solution (100 μM).
# Hydrodynamic findings can be utilized to assess the alteration of DNA length and afford details on the binding tendency between small molecules and biomolecules. As a result of their sensitivity to DNA contour length changes, which implies that the average distance between each monomer (cl = 0.338 nm/bp for B-form DNA), the DNA binding properties of all test compounds were further validated by this method. According to the Lerman concept, interactions between small molecules and deoxyribonucleic acid via covalent and noncovalent bindings are often possible. When a chemical substance interacts with the deoxyribonucleic acid double helix, the contour length of DNA increases via intercalation and leads to an increase in the absolute viscosity. Meanwhile, if DNA viscosity is not affected during interactions, which leads to the responsible for the major/minor groove binding due to H-bond/Van der Waals interactions, electrostatic, partial, or nonclassical interaction modes. Therefore, analyzing the binding modes provides additional support for the findings as well as a crucial aspect of the conventional intercalation concept. In this case, it was observed that the absolute viscosity increased consistently along with the concentration of each substance at the fixed DNA concentration. The DNA must extend to facilitate the binding of ligands, which causes a considerable rise in DNA viscosity while small molecules intercalate into the DNA helix. According to equation (12), an increase in relative viscosity denotes an intercalation-induced lengthening of the deoxyribonucleic acid base pair. While adhering to the principle of excluding the nearest neighbors, intercalation entails inserting a planar molecule into a DNA base pair without rupturing the hydrogen bonds that hold the base pairs together. This causes a diminution in the DNA helical twist and an extension of the DNA. Moreover, a molecule can be presumed to bind to deoxyribonucleic acid by intercalation between base pairs if it causes lengthening and unwinding of the deoxyribonucleic acid base pairs. In this case, the relative viscosity of DNA gradually increases, while the […]. Moreover, the affinity interactions and their slope values were observed from the relative specific viscosity (η⁄η0)^1/3 plotted straight line contrasting [Compound]/[DNA], and absolute specific viscosity of deoxyribonucleic acid in the absence or presence of samples was evaluated using equation (12) (Table 3). […] The evaluated slope findings were in the subsequent sequence: (EB) 1.215 > (1a) 0.915 > (2a) 0.630 > (HL) 0.490 (Figure S21 and Table 3). […] Due to the existence of the 2,2′-bipyridine and morpholine-fused aromatic planar systems, compounds can interact with deoxyribonucleic acid robustly via intercalation. The outcomes were excellent in accordance with the observed outcomes of absorption spectral properties.(11) η/η0^1/3=tcomplex−t0/t0/tDNA−t0/t0, where η and η0 are represented as specific viscosity of DNA in the presence complex and specific viscosity of DNA alone, and t0, tDNA, and tcomplex are represented as the average flow time of the Tris-HCl buffer solution, the average flow time of DNA alone solution, and the average flow time of DNA interacted with the samples, respectively. Error limit is ±2.5% (P < 0.025).
# [4] = DPPH radical scavenging assay; assay type: biochemical; details: for % Inhibition DPPH: 517 nm
# Description: (§4) All samples were evaluated for their scavenging ability with the help of UV-visible spectrophotometer at different concentrations of 40, 80, 120, 160, 200, and 240 μM [6, 28]. While performing the antioxidant properties for the DPPH, hydroxyl, superoxide, and nitric oxide radical scavenging, the absorbance at 517, 230, 590, and 546 nm, respectively, was closely observed. In addition, the observed IC50 values of all samples were compared with ascorbic acid.
# The colour of an aqueous or methanol solution changes from deep purple to pale yellow when DPPH, a stable chromogen free radical, combines with an antioxidant molecule, which means that DPPH quickly absorbs the hydrogen or electrons from the donor groups. In this case, for the baseline correction, a blank DPPH solution in the absence of a test compound was employed, and 517 nm (ε = 8320 M^−1·cm^−1) was attained to have a significant absorption maximum. […] The DPPH radicals are reduced by an antioxidant compound (AH), in which the reduction of electronic absorbance for each compound was vigilantly noted at 517 nm. The capacity to block radicals improves as the sample concentration increases. The assessed percentage of maximum inhibition for all substances was found at 240 μM in the subsequent order: (ascorbic acid) (85.65) > (1a) 68.64 > (2a) 59.55 > (HL) 52.45. […] Moreover, the % of scavenging or maximum inhibition for all substances is estimated with the aid of equation (44) (Table S14).(43) Scavanging%=A0−AS/A0×100
# [5] = Hydroxyl radical scavenging assay; assay type: biochemical; details: for % Inhibition hydroxyl radical: 230 nm
# Description: as §4
# Hydrogen peroxide receives electrons from antioxidant molecules and then neutralizes them into a water molecule. ^●OH inhibition capability was determined from the % of inhibition for all test substances at 230 nm.
# [6] = Superoxide scavenging assay; assay type: biochemical; details: for % Inhibition superoxide: 590 nm
# Description: as §4
# A vital enzyme catalyst in the body's defence against free radicals, superoxide dismutase (SOD) quickly and efficiently reduces toxicity and cellular damage by exchanging superoxide with water (or) harmless molecules. The % of inhibition for all substances was analyzed at 590 nm. The outcomes were obtained in the subsequent order: (ascorbic acid) 84.85 > (1a) 67.17 > (2a) 58.18 > (HL) 50.42.
# [7] = Nitric oxide scavenging assay; assay type: biochemical; details: for % Inhibition nitric oxide: 546 nm
# Description: as §4
# The diffusible nitric oxide free radical is a crucial chemical mediator, which assists in overcoming diverse chronological human diseases. The NO free radical scavenging potential for all test samples was also carried out at 546 nm. It monitored the alterations in electronic absorption intensity of the nitric oxide radical inhibition outcome concerning the sample concentrations. When the test sample concentration rises, the nitric oxide free inhibition effectiveness also increases. The measured % of nitric oxide radical scavenging capability for all samples at 240 μM was obtained in the subsequent order (ascorbic acid) 72.73 > (1a) 65.47 > (2a) 58.43 > (HL) 51.62.
smiles,measurement,setting,value
"NCC[C@H](O)C(=O)N[C@@H]1C[C@H](N)[C@@H](O[C@H]2O[C@H](CN)[C@@H](O)[C@H](O)[C@H]2O)[C@H](O)[C@H]1O[C@H]1O[C@H](CO)[C@@H](O)[C@H](N)[C@H]1O [Amikacin, reference compound]",(inhibition %),Escherichia coli; (T–C)/T×100,73%
same,diameter of the clear zone inhibition,Escherichia coli; control (DMSO) = 6 mm,22 mm
same,(inhibition %),[1],73%
same,diameter of the clear zone inhibition,[1]; control = 6 mm,22 mm
same,(inhibition %),[2],75%
same,diameter of the clear zone inhibition,[2]; control = 6 mm,24 mm
same,(inhibition %),Pseudomonas aeruginosa,70%
same,diameter of the clear zone inhibition,Pseudomonas aeruginosa; control = 6 mm,20 mm
same,(inhibition %),Shigella flexneri,70%
same,diameter of the clear zone inhibition,Shigella flexneri; control = 6 mm,20 mm
same,(inhibition %),Staphylococcus aureus,70%
same,diameter of the clear zone inhibition,Staphylococcus aureus; control = 6 mm,20 mm
same,(inhibition %),Bacillus cereus,70%
same,diameter of the clear zone inhibition,Bacillus cereus; control = 6 mm,20 mm
"C[C@@H]1[C@H](O)[C@@H](C)/C=C/C=C/C=C/C=C/C=C/C=C/C=C/[C@H](O[C@@H]2O[C@H](C)[C@@H](O)[C@H](N)[C@@H]2O)C[C@@H]2O[C@](O)(C[C@@H](O)C[C@@H](O)[C@H](O)CC[C@@H](O)C[C@@H](O)CC(=O)O[C@H]1C)C[C@H](O)[C@H]2C(=O)O [Amphotericin B, reference compound]",(inhibition %),Aspergillus niger,60%
same,diameter of the clear zone inhibition,Aspergillus niger,15 mm
same,(inhibition %),Candida albicans,65%
same,diameter of the clear zone inhibition,Candida albicans,17 mm
same,(inhibition %),Mucor indicus,65%
same,diameter of the clear zone inhibition,Mucor indicus,17 mm
"CC[n+]1c(-c2ccccc2)c2cc(N)ccc2c2ccc(N)cc21 [EB (control), Ethidium bromide, reference compound]",Slope of (η/η0)^1/3 vs [Compound]/[DNA],[3],1.215
same,Relative specific viscosity (η/η0)^1/3,[3]; [complex]/[DNA] = 0.2,1.01
same,Relative specific viscosity (η/η0)^1/3,[3]; [complex]/[DNA] = 0.4,1.35
same,Relative specific viscosity (η/η0)^1/3,[3]; [complex]/[DNA] = 0.6,1.63
same,Relative specific viscosity (η/η0)^1/3,[3]; [complex]/[DNA] = 0.8,1.82
same,Relative specific viscosity (η/η0)^1/3,[3]; [complex]/[DNA] = 1.0,1.99
"O=C1O[C@H]([C@@H](O)CO)C(O)=C1O [Ascorbic acid, reference compound]",IC50,[4],80 µM
same,% Inhibition DPPH,[4]; 40 µM,41.63%
same,% Inhibition DPPH,[4]; 80 µM,53.74%
same,% Inhibition DPPH,[4]; 120 µM,58.95%
same,% Inhibition DPPH,[4]; 160 µM,70.86%
same,% Inhibition DPPH,[4]; 200 µM,82.75%
same,% Inhibition DPPH,[4]; 240 µM,85.65%
same,IC50,[5],160 µM
same,% Inhibition hydroxyl radical,[5]; 40 µM,20.73%
same,% Inhibition hydroxyl radical,[5]; 80 µM,36.46%
same,% Inhibition hydroxyl radical,[5]; 120 µM,47.87%
same,% Inhibition hydroxyl radical,[5]; 160 µM,59.65%
same,% Inhibition hydroxyl radical,[5]; 200 µM,65.64%
same,% Inhibition hydroxyl radical,[5]; 240 µM,78.83%
same,IC50,[6],120 µM
same,% Inhibition superoxide,[6]; 40 µM,29.64%
same,% Inhibition superoxide,[6]; 80 µM,41.72%
same,% Inhibition superoxide,[6]; 120 µM,55.63%
same,% Inhibition superoxide,[6]; 160 µM,66.75%
same,% Inhibition superoxide,[6]; 200 µM,72.55%
same,% Inhibition superoxide,[6]; 240 µM,84.85%
same,IC50,[7],160 µM
same,% Inhibition nitric oxide,[7]; 40 µM,28.55%
same,% Inhibition nitric oxide,[7]; 80 µM,35.75%
same,% Inhibition nitric oxide,[7]; 120 µM,43.65%
same,% Inhibition nitric oxide,[7]; 160 µM,52.68%
same,% Inhibition nitric oxide,[7]; 200 µM,63.72%
same,% Inhibition nitric oxide,[7]; 240 µM,72.73%
"CC(=O)N1CCN(c2ccc(OCC3COC(Cn4ccnc4)(c4ccc(Cl)cc4Cl)O3)cc2)CC1 (stereo not drawn) [Ketoconazole, reference compound]",(inhibition %),Aspergillus niger,63%
same,diameter of the clear zone inhibition,Aspergillus niger,16 mm
same,(inhibition %),Candida albicans,67%
same,diameter of the clear zone inhibition,Candida albicans,18 mm
same,(inhibition %),Mucor indicus,67%
same,diameter of the clear zone inhibition,Mucor indicus,18 mm

# Reference: paper PMC9763021, “Comprehensive Assessment of Biomolecular Interactions of Morpholine-Based Mixed Ligand Cu(II) and Zn(II) Complexes of 2,2′-Bipyridine as Potential Anticancer and SARS-CoV-2 Agents: A Synergistic Experimental and Structure-Based Virtual Screening” (Bioinorganic Chemistry and Applications, 2022)
